According to patent US20240109903A1, “SUBSTITUTED HETEROCYCLES FOR TREATING CANCER” (Northwestern University, priority 2022, published 2024):
pIC50: −log10 of the molar value.

Assays:
full NCI 60 cell panel = experiment: NCI 60 Cell One-dose screen; format: cell-based, human; details: single high dose 10^−5 M, NCI 60 panel
Text: Compounds were submitted to the NCI 60 Cell screen and tested at a single high dose (10^−5 M) in the full NCI 60 cell panel (see the following reference for details of using NCI 60 human tumor cell lines for screening anticancer drugs: Shoemaker R H. The NCI60 human tumor cell line anticancer drug screen. Nature Rev Cancer 2006; 6: 813-23). The One-dose data is reported as a mean graph of the percent growth of treated cells. The number reported for the One-dose assay is growth relative to the no-drug control, and relative to the time zero number of cells. This allows detection of both growth inhibition (values between 0 and 100) and lethality (values less than 0). For example, a value of 100 means no growth inhibition. A value of 40 would mean 60% growth inhibition. A value of 0 means no net growth over the course of the experiment. A value of −40 would mean 40% lethality. A value of −100 means all cells are dead. FIGS. 1-8 show the mean graph of percent growth against the NCI-60 cell panel for NUCC-0226674, NUCC-0226679, NUCC-0226680, NUCC-0226683, NUCC-0226689, NUCC-0226694, NUCC-0226695, and NUCC-0226698.

HL-60(TB) = experiment: NCI 60 five-dose screen HL-60(TB); format: cell-based; details: Homo sapiens, five-dose
MOLT-4 = experiment: NCI 60 five-dose screen MOLT-4; format: cell-based; details: Homo sapiens, five-dose
RPMI-8226 = experiment: NCI 60 five-dose screen RPMI-8226; format: cell-based; details: Homo sapiens, five-dose
SR = experiment: NCI 60 five-dose screen SR; format: cell-based, human; details: five-dose
NCI-H226 = experiment: NCI 60 five-dose screen NCI-H226; format: cell-based; details: Homo sapiens, five-dose
NCI-H322M = experiment: NCI 60 five-dose screen NCI-H322M; format: cell-based; details: Homo sapiens, five-dose
COLO 205 = experiment: NCI 60 five-dose screen COLO 205; format: cell-based; details: Homo sapiens, five-dose
KM12 = experiment: NCI 60 five-dose screen KM12; format: cell-based; details: Homo sapiens, five-dose
U251 = experiment: NCI 60 five-dose screen U251; format: cell-based; details: Homo sapiens, U-251, five-dose
LOX IMVI = experiment: NCI 60 five-dose screen LOX IMVI; format: cell-based; details: Homo sapiens, five-dose
MDA-MB-435 = experiment: NCI 60 five-dose screen MDA-MB-435; format: cell-based; details: Homo sapiens, five-dose
SK-MEL-28 = experiment: NCI 60 five-dose screen SK-MEL-28; format: cell-based; details: Homo sapiens, five-dose
SK-MEL-5 = experiment: NCI 60 five-dose screen SK-MEL-5; format: cell-based; details: Homo sapiens, five-dose
UACC-62 = experiment: NCI 60 five-dose screen UACC-62; format: cell-based; details: Homo sapiens, five-dose
OVCAR-5 = experiment: NCI 60 five-dose screen OVCAR-5; format: cell-based; details: Homo sapiens, five-dose
OVCAR-8 = experiment: NCI 60 five-dose screen OVCAR-8; format: cell-based; details: Homo sapiens, five-dose
786-0 = experiment: NCI 60 five-dose screen 786-0; format: cell-based; details: Homo sapiens, five-dose
RXF 393 = experiment: NCI 60 five-dose screen RXF 393; format: cell-based; details: Homo sapiens, five-dose
SN12C = experiment: NCI 60 five-dose screen SN12C; format: cell-based; details: Homo sapiens, five-dose
TK-10 = experiment: NCI 60 five-dose screen TK-10; format: cell-based; details: Homo sapiens, five-dose
MDA-MB-231/ATCC = experiment: NCI 60 five-dose screen MDA-MB-231/ATCC; format: cell-based; details: Homo sapiens, five-dose
BT-549 = experiment: NCI 60 five-dose screen BT-549; format: cell-based; details: Homo sapiens, five-dose
MDA-MB-468 = experiment: NCI 60 five-dose screen MDA-MB-468; format: cell-based; details: Homo sapiens, five-dose
[1] = read-out: LC50 (the source's name) (converted)
[2] = read-out: LC50 (the source's name)

FC(F)(F)c1cc2c(Cl)ncnc2n1CCC1CCOCC1 [NUCC-0226674]
growth inhibition in the One-Dose Screen (full NCI 60 cell panel): significant growth inhibition | GI50 (HL-60(TB)): 2.24 µM | pIC50 (HL-60(TB)): 5.38 | IC (TGI) (HL-60(TB)): 5.01 µM | CC50 (HL-60(TB); [1]): 44.7 µM | GI50 (MOLT-4): 2.34 µM | pIC50 (MOLT-4): 5.37 | IC (TGI) (MOLT-4): 5.5 µM | CC50 (MOLT-4; [2]): ≥ 100 µM | GI50 (RPMI-8226): 14.5 µM | pIC50 (RPMI-8226): 4.59 | IC (TGI) (RPMI-8226): 41.7 µM | CC50 (RPMI-8226; [2]): ≥ 100 µM | GI50 (SR; Homo sapiens): 2.04 µM | pIC50 (SR; Homo sapiens): 5.43 | CC50 (SR; Homo sapiens, read-out: LC50 (the source's name)): ≥ 100 µM | TGI (SR): 5.27 −log[M] | GI50 (NCI-H226): 13.8 µM | pIC50 (NCI-H226): 4.52 | IC (TGI) (NCI-H226): 28.8 µM | CC50 (NCI-H226; [1]): 58.9 µM | GI50 (NCI-H322M): 3.16 µM | pIC50 (NCI-H322M): 5.08 | IC (TGI) (NCI-H322M): 12.6 µM | CC50 (NCI-H322M; [1]): 35.5 µM | GI50 (COLO 205): 16.2 µM | pIC50 (COLO 205): 4.52 | IC (TGI) (COLO 205): 37.2 µM | CC50 (COLO 205; [1]): 85.1 µM | GI50 (KM12): 16.2 µM | pIC50 (KM12): 4.55 | IC (TGI) (KM12): 33.9 µM | CC50 (KM12; [1]): 70.8 µM | GI50 (U251): 2.09 µM | pIC50 (U251): 5.49 | IC (TGI) (U251): 5.62 µM | CC50 (U251; [1]): 28.2 µM | GI50 (LOX IMVI): 1.62 µM | pIC50 (LOX IMVI): 5.54 | IC (TGI) (LOX IMVI): 3.02 µM | CC50 (LOX IMVI; [1]): 5.5 µM | GI50 (MDA-MB-435): 5.01 µM | pIC50 (MDA-MB-435): 5.09 | IC (TGI) (MDA-MB-435): 18.2 µM | CC50 (MDA-MB-435; [1]): 49 µM | GI50 (SK-MEL-28): 2.63 µM | pIC50 (SK-MEL-28): 5.34 | IC (TGI) (SK-MEL-28): 6.03 µM | CC50 (SK-MEL-28; [1]): 21.4 µM | GI50 (SK-MEL-5): 2.82 µM | pIC50 (SK-MEL-5): 5.36 | IC (TGI) (SK-MEL-5): 9.33 µM | CC50 (SK-MEL-5; [1]): 30.2 µM | GI50 (UACC-62): 4.27 µM | pIC50 (UACC-62): 5.09 | IC (TGI) (UACC-62): 15.8 µM | CC50 (UACC-62; [1]): 40.7 µM | GI50 (OVCAR-5): 24 µM | pIC50 (OVCAR-5): 4.34 | IC (TGI) (OVCAR-5): 81.3 µM | CC50 (OVCAR-5; [1]): ≥ 100 µM | GI50 (OVCAR-8): 2.45 µM | pIC50 (OVCAR-8): 5.44 | IC (TGI) (OVCAR-8): 7.41 µM | CC50 (OVCAR-8; [1]): 63.1 µM | GI50 (786-0): 16.2 µM | pIC50 (786-0): 4.55 | IC (TGI) (786-0): 32.4 µM | CC50 (786-0; [1]): 64.6 µM | GI50 (RXF 393): 8.71 µM | pIC50 (RXF 393): 4.62 | IC (TGI) (RXF 393): 21.9 µM | CC50 (RXF 393; [1]): 51.3 µM | GI50 (SN12C): 6.61 µM | pIC50 (SN12C): 4.90 | IC (TGI) (SN12C): 20 µM | CC50 (SN12C; [1]): 46.8 µM | GI50 (TK-10): 17.4 µM | pIC50 (TK-10): 4.44 | IC (TGI) (TK-10): 36.3 µM | CC50 (TK-10; [1]): 77.6 µM | GI50 (MDA-MB-231/ATCC): 3.89 µM | pIC50 (MDA-MB-231/ATCC): 5.09 | IC (TGI) (MDA-MB-231/ATCC): 14.1 µM | CC50 (MDA-MB-231/ATCC; [1]): 43.7 µM | GI50 (BT-549): 10.2 µM | pIC50 (BT-549): 4.63 | IC (TGI) (BT-549): 22.4 µM | CC50 (BT-549; [1]): 50.1 µM | GI50 (MDA-MB-468): 1.66 µM | pIC50 (MDA-MB-468): 5.42 | IC (TGI) (MDA-MB-468): 3.47 µM | CC50 (MDA-MB-468; [1]): 7.24 µM
